Reference: paper PMC7615677 (Science translational medicine, 2023)
Where two headings read alike, the source gives them in different places.

Experiments:
In vivo pharmacokinetics [1] = assay: In vivo pharmacokinetics; design: species or system female BALB/c mice; details: female, BALB/c, plasma
Description: Single dose intravenous (IV) pharmacokinetic (PK) studies in male Sprague Dawley rats and IV and oral PK studies in female BALB/c mice were conducted at Monash University. […] Blood was sampled via a cannula implanted in the carotid artery (also on the day prior to dosing) at pre-determined time points up to 24 h post-dose. Samples were transferred to vials containing heparin as an anticoagulant, gently mixed and centrifuged, and plasma separated for subsequent quantitative analysis using LC-MS. […] A dose of 25 mg/kg prepared in an aqueous suspension vehicle containing 0.5% hydroxypropyl methylcellulose, 0.5% benzyl alcohol and 0.4% polysorbate 80 (0.2 mL per mouse) was also dosed via oral gavage. Mouse blood was sampled via submandibular bleed up to 24 h post-dose (n=2 mice per time point, n=3 samples per mouse) into vials containing heparin and plasma was separated for quantitative analysis as described above.
(§1) Additional PK studies were also conducted by WuXi AppTec Co, Ltd (Shanghai, China) according to protocols reviewed and approved by DNDi. […] IV and oral formulations for rats, mice and hamsters were the same as described above. For dogs, the IV dose was administered in saline containing 2% DMSO and 3% Solutol HS-15 and the oral formulation was as described above. Blood was sampled up to 48 h post-dose into vials containing potassium EDTA as an anticoagulant, proteins were precipitated with acetonitrile and plasma was separated and assayed by LC-MS.
(§2) Single dose pharmacokinetic parameters (clearance, volume of distribution and half-life) were initially estimated using non-compartmental methods and oral bioavailability was calculated using the ratio of the dose corrected AUC after oral dosing relative to that after IV administration. […] Where a full concentration versus time profile was obtained from a single animal, parameters were estimated for each animal and mean and standard deviations calculated. In the case of mice where sparse sampling was used with multiple animals per time point, the data analysis was conducted using the mean profile.

[2] = In vitro metabolism, cryopreserved hepatocytes; assay type: in vitro ADME, rat
Description: Cell viability was determined using trypan blue exclusion. The incubation was performed on a plate shaker (Heidolph Titrimax 100, 900 rpm) placed in a humidified incubator (37°C, 7.5% CO2) for 240 min. The reaction was initiated with the addition of compound with samples taken periodically and quenched with the addition of acetonitrile containing internal standards (metolazone and diazepam). Quenched samples were maintained on ice for approximately 20-30 min, centrifuged (for 5 min) and the supernatant analyzed by LC-MS.
In vitro intrinsic clearance (CLint, μL/min/mg or μL/min/10^6 cells) values were calculated from the apparent first order degradation rate constant divided by the microsome concentration or the hepatocyte cell number (10^6 viable cells/mL). In vitro CLint values were then divided by the fraction unbound in the in vitro test system (to give CLint,u) and scaled to in vivo values (mL/min/kg) using published physiological scaling factors ([28]). Blood clearance in each species was then calculated using the well-stirred model of hepatic extraction (equation 2) where Q is the hepatic blood flow and fu,blood is calculated from fu,plasma/B:P: [2] PredictedCLblood=Q x fu,blood x CLint,u/Q+fu,blood x CLint,u
Blood clearance values were converted to plasma clearance by multiplying by the B:P.

NMDA receptor = assay: In vitro pharmacology panel (Eurofins); assay type: binding, rat; details: 10 µM
Excerpt: (§3) Listed values represent the percent change relative to the DMSO control activity. When an IC50 had to be determined, eight different concentrations were included. All values are the mean of assay readout duplicates.

BZD (central) = assay: In vitro pharmacology panel (Eurofins); assay type: binding, rat; details: 10 µM
Excerpt: as §3

KV channel = assay: In vitro pharmacology panel (Eurofins); assay type: binding, rat; details: 10 µM
Excerpt: as §3

[3] = tested on: Ca2+ channel, (L,dihydropyridine site); assay: In vitro pharmacology panel (Eurofins); assay type: binding, rat; details: 10 µM
Excerpt: as §3

Na+ channel (site 2) = assay: In vitro pharmacology panel (Eurofins); assay type: binding, rat; details: 10 µM
Excerpt: as §3

[4] = In vitro metabolism, liver microsomes; assay type: in vitro ADME; details: Rat
Description: Compounds were spiked into microsomal matrix prepared in 0.1 M pH 7.4 phosphate buffer containing magnesium chloride (final concentration of 3.3 mM), equilibrated for 5-10 min at 37°C. The reaction was initiated with the addition of freshly prepared solution of NADPH (final 1.3 mM). Control samples without co-factor were included for comparison. Aliquots of the reaction mixtures were taken periodically over 60 min and quenched with acetonitrile containing internal standards (metolazone and diazepam). Quenched samples were maintained on ice for approximately 20-30 min, centrifuged (for 5 min) and the supernatant was analyzed by LC-MS.
In vitro intrinsic clearance (CLint, μL/min/mg or μL/min/10^6 cells) values were calculated from the apparent first order degradation rate constant divided by the microsome concentration or the hepatocyte cell number (10^6 viable cells/mL). In vitro CLint values were then divided by the fraction unbound in the in vitro test system (to give CLint,u) and scaled to in vivo values (mL/min/kg) using published physiological scaling factors ([28]). Blood clearance in each species was then calculated using the well-stirred model of hepatic extraction (equation 2) where Q is the hepatic blood flow and fu,blood is calculated from fu,plasma/B:P: [2] PredictedCLblood=Q x fu,blood x CLint,u/Q+fu,blood x CLint,u […]

[5] = tested on: T. cruzi (Tulahuen strain); assay: In vitro activity against other kinetoplastid parasites; assay type: cell-based; details: Trypanosoma cruzi
[6] = Reaction phenotyping with chemical CYP inhibitors; assay type: in vitro ADME; details: human liver microsomes
Description: Other aspects of the incubation and analysis were as described above.

[7] = Binding to hepatocytes, calculated from microsomal binding; assay type: in vitro ADME; details: human, 1 x 10^6 cells/mL, read-out: hepatocyte fraction unbound
Description: Dialysis was conducted for 6 h and parallel non-dialyzed samples were included to confirm the absence of compound degradation. Binding to hepatocytes (at a cell density of 1 x 10^6 cells/mL) was calculated from the measured microsomal binding (at 1 mg/mL) as described previously ([26]). The fraction unbound (fu) was determined from the ratio of the dialysate to the donor concentration, assuming that the system was at steady state at the end of the dialysis period. For plasma, the data were corrected for the dilution factor to give a binding value for neat plasma according to previously published methods ([27]).

In vivo pharmacokinetics [8] = assay: In vivo pharmacokinetics; design: species or system female golden Syrian hamsters; details: for AUC(0-t): read-out: AUC0-24 (first dose); for AUC: read-out: AUC96-120 (last dose)
Description: as §1, §2

[9] = molecular target: complex III of L. donovani (Leishmania donovani, UniProt A5HU08); assay: Complex III assay in mitochondria-enriched cell lysates
Sequence of complex III of L. donovani (A5HU08 1-290): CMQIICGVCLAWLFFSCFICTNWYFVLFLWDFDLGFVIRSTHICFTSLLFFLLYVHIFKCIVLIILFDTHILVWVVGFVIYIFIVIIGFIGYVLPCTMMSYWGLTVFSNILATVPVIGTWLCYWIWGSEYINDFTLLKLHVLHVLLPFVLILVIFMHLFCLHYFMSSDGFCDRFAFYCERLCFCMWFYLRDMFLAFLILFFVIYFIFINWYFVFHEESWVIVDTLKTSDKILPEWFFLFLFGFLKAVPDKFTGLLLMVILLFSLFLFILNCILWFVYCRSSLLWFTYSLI
Sequence of complex III of L. donovani (A0A3S7WPP0 1-258 partner): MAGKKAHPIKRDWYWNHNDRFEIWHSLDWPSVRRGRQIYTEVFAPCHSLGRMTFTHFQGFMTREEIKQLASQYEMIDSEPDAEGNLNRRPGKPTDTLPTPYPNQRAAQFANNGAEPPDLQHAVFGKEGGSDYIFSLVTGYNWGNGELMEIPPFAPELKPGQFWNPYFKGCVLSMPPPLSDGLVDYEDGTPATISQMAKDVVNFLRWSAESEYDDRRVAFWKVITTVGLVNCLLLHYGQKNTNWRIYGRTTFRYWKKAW
Description: Measurement of complex III activity and inhibition were performed as described previously ([6]).

[10] = female, golden Syrian, hamster, plasma, hamsters, oral 12.5 mg/kg qd, 5 days
[11] = female, golden Syrian, hamster, plasma, hamsters, oral 25 mg/kg qd, 5 days

SMILES: Cc1[nH]c2nc(N)nc(C)c2c1-c1ccc(C#N)c2c1OCO2 [DNDI-6174]
- clearance (In vivo pharmacokinetics [1]; mouse, iv, 2 mg/kg, intravenous 2.0 mg/kg, read-out: Plasma CL): 7.46 mL/min/kg
- half-life (In vivo pharmacokinetics [1]; Mouse, intravenous 2.0 mg/kg, read-out: Apparent t1/2 (converted)): 2 h
- Cmax (In vivo pharmacokinetics [1]; Mouse, oral 25 mg/kg): 10400 ng/mL
- Tmax (In vivo pharmacokinetics [1]; Mouse, oral 25 mg/kg): 1 h
- bioavailability (In vivo pharmacokinetics [1]; Mouse, oral 25 mg/kg): > 100%
- Hepatocyte predicted in vivo CLplasma ([2]; Rat): 2.7 mL/min/kg
- hepatocyte CLint at 0.5 µM ([2]; rat, cryopreserved hepatocytes): 5.3 ± 0.19 µL/min/1e6 cells
- activity (% of DMSO control) (NMDA receptor): 89.6%
- activity (% of DMSO control) (BZD (central)): 90.2%
- activity (% of DMSO control) (KV channel): 98.7%
- activity (% of DMSO control) [3]: 89.6%
- activity (% of DMSO control) (Na+ channel (site 2)): 73.9%
- Microsome predicted in vivo CLplasma [4]: 2.4 mL/min/kg
- microsomal CLint at 0.5 µM ([4]; liver microsomes, pH 7.4, 2 independent experiments, read-out: In vitro Microsome CLint): 10 ± 0.79 µL/min/mg
- EC50 [5]: < 5 nM
- CLint in absence or presence of CYP isoform inhibitors, in words [6]: no significant difference in the CLint values in the absence or presence of inhibitors
- fraction unbound [7]: 0.63
- Cmax at 5 days (In vivo pharmacokinetics [8]; [10]): 3530 ng/mL
- AUC(0-t) (In vivo pharmacokinetics [8]; [10]): 22900 ng·h/mL
- AUC (In vivo pharmacokinetics [8]; [10]): 30200 ng·h/mL
- Cmax at 5 days (In vivo pharmacokinetics [8]; [11]): 7790 ng/mL
- AUC(0-t) (In vivo pharmacokinetics [8]; [11]): 44200 ng·h/mL
- AUC (In vivo pharmacokinetics [8]; [11]): 77400 ng·h/mL
- Cmax (In vivo pharmacokinetics [8]; female, golden Syrian, hamster, plasma, hamsters, oral 25 mg/kg qd, 5 days, read-out: Cmax (Day 1)): 4560 ng/mL
- AUC(0-t) (In vivo pharmacokinetics [8]; female, golden Syrian, hamster, plasma, hamsters, oral 50 mg/kg, single dose on day 1 only): 145000 ng·h/mL
- Cmax (In vivo pharmacokinetics [8]; female, golden Syrian, hamster, plasma, hamsters, oral 50 mg/kg, single dose on day 1 only, read-out: Cmax (Day 1)): 13200 ng/mL
- Tmax (In vivo pharmacokinetics [8]; female, golden Syrian, plasma, Hamster, oral 12.5 mg/kg): 2.7 h
- half-life (In vivo pharmacokinetics [8]; female, golden Syrian, plasma, Hamster, oral 12.5 mg/kg, read-out: Apparent t1/2 (converted)): 2.6 h
- Cmax (In vivo pharmacokinetics [8]; female, golden Syrian, plasma, Hamster, oral 12.5 mg/kg, read-out: Cmax): 2870 ng/mL
- AUC(0-inf) (In vivo pharmacokinetics [8]; female, golden Syrian, plasma, Hamster, oral 12.5 mg/kg, read-out: Plasma AUC0-∞): 21200 ng·h/mL
- Cmax (Day 1) (In vivo pharmacokinetics [8]; hamsters, oral 12.5 mg/kg qd, 5 days): 2870 ng/mL
- IC50 ([9]; lysates from axenic amastigote stage): 2 ± 0.5 nM
- IC50 ([9]; lysates from promastigote stage): 8 ± 1.7 nM
